Test results as given in ChEMBL document CHEMBL5653631, “A Potent and Selective ULK1 Inhibitor Suppresses Autophagy and Sensitizes Cancer Cells to Nutrient Stress” (iScience, 2018).

Experiments:
[1] = biological target: T1, Serine/threonine-protein kinase Nek9 (Homo sapiens) (UniProt Q8TD19); assay: Inhibition of human recombinant NEK9 at 40 nM related to control ULK1
T1 sequence (whole entry): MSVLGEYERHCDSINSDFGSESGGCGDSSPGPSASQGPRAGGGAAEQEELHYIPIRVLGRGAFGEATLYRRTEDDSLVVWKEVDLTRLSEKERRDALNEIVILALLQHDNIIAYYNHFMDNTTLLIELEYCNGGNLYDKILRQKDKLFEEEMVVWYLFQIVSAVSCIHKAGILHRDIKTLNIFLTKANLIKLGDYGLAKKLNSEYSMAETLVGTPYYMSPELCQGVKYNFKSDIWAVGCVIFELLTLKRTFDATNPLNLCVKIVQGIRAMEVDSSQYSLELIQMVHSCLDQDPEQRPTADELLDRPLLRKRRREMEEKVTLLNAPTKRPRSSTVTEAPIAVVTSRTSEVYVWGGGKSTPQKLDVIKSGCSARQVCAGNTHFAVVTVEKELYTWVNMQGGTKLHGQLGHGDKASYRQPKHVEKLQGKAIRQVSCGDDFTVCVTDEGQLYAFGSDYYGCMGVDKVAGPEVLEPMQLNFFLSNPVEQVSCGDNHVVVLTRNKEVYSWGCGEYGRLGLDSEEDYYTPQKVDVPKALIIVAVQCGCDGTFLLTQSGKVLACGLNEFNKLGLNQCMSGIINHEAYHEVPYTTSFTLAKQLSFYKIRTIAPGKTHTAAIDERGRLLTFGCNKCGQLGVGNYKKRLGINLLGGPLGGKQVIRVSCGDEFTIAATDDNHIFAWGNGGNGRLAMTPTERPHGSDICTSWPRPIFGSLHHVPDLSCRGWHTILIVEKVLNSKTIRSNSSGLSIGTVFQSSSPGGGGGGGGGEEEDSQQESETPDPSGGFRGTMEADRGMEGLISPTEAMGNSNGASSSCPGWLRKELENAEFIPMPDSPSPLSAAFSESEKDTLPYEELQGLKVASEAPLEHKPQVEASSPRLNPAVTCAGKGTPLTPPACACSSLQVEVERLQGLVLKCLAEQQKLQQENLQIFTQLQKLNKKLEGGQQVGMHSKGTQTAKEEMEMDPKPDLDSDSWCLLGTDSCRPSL

[2] = biological target: Cyclin-dependent kinase 2 (Homo sapiens) (UniProt P24941); assay: Inhibition of human recombinant CDK2 at 40 nM related to control ULK1
[3] = biological target: Serine/threonine-protein kinase 32A (Homo sapiens) (UniProt Q8WU08); assay: Inhibition of human recombinant YANK1 at 40 nM related to control ULK1
Sequence of Serine/threonine-protein kinase 32A (Homo sapiens) (Q8WU08 whole entry): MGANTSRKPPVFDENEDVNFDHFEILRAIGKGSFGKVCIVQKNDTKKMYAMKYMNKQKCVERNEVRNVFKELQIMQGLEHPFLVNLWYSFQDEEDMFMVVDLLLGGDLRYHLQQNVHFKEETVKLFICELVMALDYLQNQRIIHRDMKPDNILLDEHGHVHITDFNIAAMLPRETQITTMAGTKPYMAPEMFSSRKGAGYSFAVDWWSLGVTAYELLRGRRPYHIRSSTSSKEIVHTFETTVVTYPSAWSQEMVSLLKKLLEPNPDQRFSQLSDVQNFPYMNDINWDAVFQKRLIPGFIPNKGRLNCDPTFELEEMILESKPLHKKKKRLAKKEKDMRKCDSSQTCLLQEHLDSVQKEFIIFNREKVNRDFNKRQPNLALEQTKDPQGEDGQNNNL

[4] = biological target: T2, Ephrin type-A receptor 1 (Homo sapiens) (UniProt P21709); assay: Inhibition of human recombinant EphA1 at 15 nM in presence of ATP by radiometric assay relative to control
T2 sequence (whole entry): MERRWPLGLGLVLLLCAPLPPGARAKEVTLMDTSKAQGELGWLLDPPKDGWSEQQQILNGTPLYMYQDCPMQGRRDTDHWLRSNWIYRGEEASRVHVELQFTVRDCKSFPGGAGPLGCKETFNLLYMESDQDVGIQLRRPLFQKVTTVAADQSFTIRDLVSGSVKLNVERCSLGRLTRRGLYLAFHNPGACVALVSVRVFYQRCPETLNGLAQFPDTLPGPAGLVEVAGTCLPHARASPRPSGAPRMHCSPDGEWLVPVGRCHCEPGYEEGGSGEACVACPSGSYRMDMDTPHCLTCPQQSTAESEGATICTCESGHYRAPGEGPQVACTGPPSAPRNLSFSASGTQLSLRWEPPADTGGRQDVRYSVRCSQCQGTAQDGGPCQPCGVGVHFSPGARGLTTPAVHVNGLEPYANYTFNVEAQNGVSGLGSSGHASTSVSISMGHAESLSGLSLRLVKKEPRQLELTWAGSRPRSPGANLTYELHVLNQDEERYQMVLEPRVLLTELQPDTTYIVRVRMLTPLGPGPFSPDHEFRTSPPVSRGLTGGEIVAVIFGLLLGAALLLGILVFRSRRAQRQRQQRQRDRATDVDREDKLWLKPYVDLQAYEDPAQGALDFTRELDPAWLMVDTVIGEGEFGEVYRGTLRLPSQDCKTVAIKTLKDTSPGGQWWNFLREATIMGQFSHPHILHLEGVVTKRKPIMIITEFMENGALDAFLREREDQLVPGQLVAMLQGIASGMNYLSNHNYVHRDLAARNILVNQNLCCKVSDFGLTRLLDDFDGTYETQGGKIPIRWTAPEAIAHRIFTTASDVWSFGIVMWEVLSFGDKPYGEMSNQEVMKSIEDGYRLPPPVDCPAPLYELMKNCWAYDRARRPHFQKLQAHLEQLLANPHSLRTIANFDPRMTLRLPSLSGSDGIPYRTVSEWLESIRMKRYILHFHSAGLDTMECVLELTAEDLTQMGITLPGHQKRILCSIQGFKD

[5] = biological target: Serine/threonine-protein kinase VRK2 (Homo sapiens) (UniProt Q86Y07); assay: Inhibition of human recombinant VRK2 at 15 nM in presence of ATP by radiometric assay relative to control
Sequence of Serine/threonine-protein kinase VRK2 (Homo sapiens) (Q86Y07 whole entry): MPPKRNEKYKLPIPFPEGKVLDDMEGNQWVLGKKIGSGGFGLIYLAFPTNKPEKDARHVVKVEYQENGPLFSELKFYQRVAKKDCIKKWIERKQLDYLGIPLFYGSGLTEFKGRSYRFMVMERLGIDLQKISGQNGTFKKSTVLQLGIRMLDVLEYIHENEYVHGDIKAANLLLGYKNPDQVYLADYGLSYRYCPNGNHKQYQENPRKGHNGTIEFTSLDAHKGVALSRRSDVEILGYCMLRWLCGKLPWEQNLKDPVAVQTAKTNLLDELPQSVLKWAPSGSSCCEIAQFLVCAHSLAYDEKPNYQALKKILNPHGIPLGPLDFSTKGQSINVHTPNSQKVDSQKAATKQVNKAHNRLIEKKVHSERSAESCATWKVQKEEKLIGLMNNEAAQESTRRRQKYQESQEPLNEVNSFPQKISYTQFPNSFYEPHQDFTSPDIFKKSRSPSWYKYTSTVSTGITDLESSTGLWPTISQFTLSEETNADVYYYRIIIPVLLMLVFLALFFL

[6] = biological target: Serine/threonine-protein kinase PAK 5 (Homo sapiens) (UniProt Q9P286); assay: Inhibition of human recombinant PAK5 at 15 nM related to control ULK1
Sequence of Serine/threonine-protein kinase PAK 5 (Homo sapiens) (Q9P286 whole entry, looked up): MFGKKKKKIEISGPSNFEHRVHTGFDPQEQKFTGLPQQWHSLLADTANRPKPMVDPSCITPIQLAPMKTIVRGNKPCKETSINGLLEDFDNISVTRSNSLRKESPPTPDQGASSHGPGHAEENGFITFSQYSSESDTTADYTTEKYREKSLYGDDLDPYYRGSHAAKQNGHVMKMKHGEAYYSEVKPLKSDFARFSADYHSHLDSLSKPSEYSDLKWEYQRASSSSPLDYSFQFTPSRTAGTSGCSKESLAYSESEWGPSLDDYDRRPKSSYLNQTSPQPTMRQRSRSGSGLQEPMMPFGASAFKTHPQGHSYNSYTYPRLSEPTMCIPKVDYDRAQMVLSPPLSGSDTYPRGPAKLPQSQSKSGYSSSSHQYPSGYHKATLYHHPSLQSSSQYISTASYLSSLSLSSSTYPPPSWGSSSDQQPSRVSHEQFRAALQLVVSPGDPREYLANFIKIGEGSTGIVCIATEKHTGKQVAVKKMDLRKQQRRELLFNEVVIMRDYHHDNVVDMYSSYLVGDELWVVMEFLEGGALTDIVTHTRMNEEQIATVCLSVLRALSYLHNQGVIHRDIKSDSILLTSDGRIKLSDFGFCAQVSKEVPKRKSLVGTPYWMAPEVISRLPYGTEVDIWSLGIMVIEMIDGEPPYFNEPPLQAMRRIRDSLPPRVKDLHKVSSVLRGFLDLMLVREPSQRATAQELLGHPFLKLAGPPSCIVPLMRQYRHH

[7] = biological target: Death-associated protein kinase 2 (Homo sapiens) (UniProt Q9UIK4); assay: Inhibition of human recombinant DAPK2 at 15 nM in presence of ATP by radiometric assay relative to control
Sequence of Death-associated protein kinase 2 (Homo sapiens) (Q9UIK4 whole entry, looked up): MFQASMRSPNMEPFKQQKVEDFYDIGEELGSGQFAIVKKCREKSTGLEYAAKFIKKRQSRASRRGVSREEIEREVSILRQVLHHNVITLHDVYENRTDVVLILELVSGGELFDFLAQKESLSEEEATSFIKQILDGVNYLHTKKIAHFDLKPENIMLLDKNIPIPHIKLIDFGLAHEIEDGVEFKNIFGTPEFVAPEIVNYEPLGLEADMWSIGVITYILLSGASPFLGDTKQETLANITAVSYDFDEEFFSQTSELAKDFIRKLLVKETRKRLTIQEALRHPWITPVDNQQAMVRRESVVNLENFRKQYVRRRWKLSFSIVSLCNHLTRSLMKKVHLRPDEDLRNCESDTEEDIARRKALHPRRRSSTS

For O=C(N[C@@H](C1CC1)C(F)(F)F)c1cc(-c2cnn3cc(-c4ccc(F)cc4)cnc23)cs1, the fold change (FC) [1] was 0.07, the fold change (FC) [2] was 0.4 and the fold change (FC) [3] was 0.05.
CC(C)[C@H](NC(=O)c1cc(-c2cnn3cc(-c4ccc(OCCN5CCCCC5)cc4)cnc23)cs1)C(F)(F)F showed an inhibition [4] of 0%, an inhibition [5] of 0% and a fold change (FC) [6] of 0. For the same compound, the inhibition [7] was 6%.
